Counter-ions that a name gives are not always drawn. ± gives the standard deviation of the averaged measurements.
System: HepaRG
Assay: LDH release cytotoxicity, % of total lysis control; higher = more cytotoxic
Conditions: 48 h
Procedure, shortened: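 Duplicate wells of single-lot HepaRG cells, grown on collagen I-coated 96-well plates, received eight-point half-log series of test chemicals with 100 µM as the top concentration. Exposure lasted 48 h in serum-free induction medium with 0.5% DMSO, while total lysis wells received 0.1% Triton X. Resorufin fluorescence (CytoTox-ONE, Tecan Safire) was used to quantify LDH leaked into 50 µL of spent medium. Values for percent cytotoxicity were normalized to on-plate vehicle and total lysis controls and averaged across the duplicates.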

Structure (SMILES): O=C(O)c1ccccc1C(c1ccc(O)cc1)c1ccc(O)cc1 [Phenolphthalin]
- LDH release cytotoxicity (0.03162 µM): -1.69 ± 0.25%
- LDH release cytotoxicity (0.1 µM): -1.91 ± 1.3%
- LDH release cytotoxicity (0.3162278 µM): -2.15 ± 0.91%
- LDH release cytotoxicity (1 µM): -2.6 ± 0.41%
- LDH release cytotoxicity (3.16228 µM): -1.53 ± 0.2%
- LDH release cytotoxicity (10 µM): -1.03 ± 0.2%
- LDH release cytotoxicity (31.6228 µM): -1.15 ± 0.7%
- LDH release cytotoxicity (100 µM): 0.0929 ± 0.98%

Structure (SMILES): CCc1ccc(CCOc2ccc(CC3SC(=O)NC3=O)cc2)nc1 (centres undefined) [Pioglitazone hydrochloride]
- LDH release cytotoxicity (0.03162 µM): -0.765 ± 0.13%
- LDH release cytotoxicity (0.1 µM): -1.11 ± 0.35%
- LDH release cytotoxicity (0.3162278 µM): -1.39 ± 0.062%
- LDH release cytotoxicity (1 µM): -1.98 ± 0.67%
- LDH release cytotoxicity (3.16228 µM): -2.26 ± 0.28%
- LDH release cytotoxicity (10 µM): -3.4 ± 0.42%
- LDH release cytotoxicity (31.6228 µM): -3.94 ± 0.23%
- LDH release cytotoxicity (100 µM): -0.63 ± 0.3%

Structure (SMILES): CCOC(=O)CC(SP(=S)(OC)OC)C(=O)OCC (centres undefined) [Malathion]
- LDH release cytotoxicity (0.03162 µM): 0.138 ± 0.34%
- LDH release cytotoxicity (0.1 µM): -0.944 ± 0.55%
- LDH release cytotoxicity (0.3162278 µM): -0.165 ± 0.55%
- LDH release cytotoxicity (1 µM): -0.829 ± 0.26%
- LDH release cytotoxicity (3.16228 µM): -0.0242 ± 0.075%
- LDH release cytotoxicity (10 µM): -0.216 ± 0.19%
- LDH release cytotoxicity (31.6228 µM): -0.432 ± 0.52%
- LDH release cytotoxicity (100 µM): 0.626 ± 0.78%

Structure (SMILES): Clc1ccc(C(Cl)(Cl)Cl)cc1 [4-Chlorobenzotrichloride]
- LDH release cytotoxicity (0.03162 µM): -1.85 ± 0.71%
- LDH release cytotoxicity (0.1 µM): -1.72 ± 0.36%
- LDH release cytotoxicity (0.3162278 µM): -2.4 ± 0.4%
- LDH release cytotoxicity (1 µM): -1.68 ± 1.3%
- LDH release cytotoxicity (3.16228 µM): -1.91 ± 0.86%
- LDH release cytotoxicity (10 µM): -1.134 ± 0.011%
- LDH release cytotoxicity (31.6228 µM): -0.341 ± 0.31%
- LDH release cytotoxicity (100 µM): 27.7 ± 9.1%

Structure (SMILES): CC(C)(C)OOC(C)(C)C [Di-tert-butyl peroxide]
- LDH release cytotoxicity (0.01581 µM): -1.21 ± 0.27%
- LDH release cytotoxicity (0.05 µM): -2.14 ± 0.51%
- LDH release cytotoxicity (0.1581139 µM): -1.99 ± 0.23%
- LDH release cytotoxicity (0.5 µM): -2.18 ± 0.81%
- LDH release cytotoxicity (1.5811388 µM): -1.46 ± 0.93%
- LDH release cytotoxicity (5 µM): -1.68 ± 1.1%
- LDH release cytotoxicity (15.8114 µM): -1.75 ± 0.98%
- LDH release cytotoxicity (50 µM): -1.55 ± 0.28%

Structure (SMILES): O=[N+]([O-])c1ccc(Oc2ccc(Cl)cc2Cl)cc1 [Nitrofen]
- LDH release cytotoxicity (0.03162 µM): 0.322 ± 3%
- LDH release cytotoxicity (0.1 µM): -0.97 ± 0.56%
- LDH release cytotoxicity (0.3162278 µM): -0.303 ± 0.48%
- LDH release cytotoxicity (1 µM): -0.821 ± 0.57%
- LDH release cytotoxicity (3.16228 µM): -0.947 ± 1%
- LDH release cytotoxicity (10 µM): 0.734 ± 0.22%
- LDH release cytotoxicity (31.6228 µM): 0.996 ± 0.67%
- LDH release cytotoxicity (100 µM): 3.046 ± 0.0066%

Structure (SMILES): C=CCc1ccc2c(c1)OCO2 [Safrole]
- LDH release cytotoxicity (0.03162 µM): -1.32 ± 2.9%
- LDH release cytotoxicity (0.1 µM): -2.757 ± 0.0064%
- LDH release cytotoxicity (0.3162278 µM): -3.53 ± 1%
- LDH release cytotoxicity (1 µM): -4.07 ± 0.0064%
- LDH release cytotoxicity (3.16228 µM): -3.36 ± 0.43%
- LDH release cytotoxicity (10 µM): -2.27 ± 1.1%
- LDH release cytotoxicity (31.6228 µM): -1.93 ± 2.5%
- LDH release cytotoxicity (100 µM): 1.79 ± 3.3%

Structure (SMILES): CCCOc1ccc(S(=O)(=O)N2CCN(CC)CC2)cc1-c1nc2c(CC)n(Cc3ccccn3)nc2c(=O)[nH]1
- LDH release cytotoxicity (0.03162 µM): -0.95 ± 0.39%
- LDH release cytotoxicity (0.1 µM): -1.66 ± 0.39%
- LDH release cytotoxicity (0.3162278 µM): -1.8 ± 0.68%
- LDH release cytotoxicity (1 µM): -1.82 ± 0.63%
- LDH release cytotoxicity (3.16228 µM): -1.41 ± 0.12%
- LDH release cytotoxicity (10 µM): -1.21 ± 0.066%
- LDH release cytotoxicity (31.6228 µM): -0.893 ± 0.14%
- LDH release cytotoxicity (100 µM): 5.44 ± 2.7%

Structure (SMILES): COc1cc2c(c(OC)c1OC)-c1ccc(OC)c(=O)cc1C(NC(C)=O)CC2 (centres undefined) [Colchicine]
- LDH release cytotoxicity (0.031623 µM): 2.9 ± 1.9%
- LDH release cytotoxicity (0.1 µM): 7.47 ± 1.3%
- LDH release cytotoxicity (0.316228 µM): 10.8 ± 1.7%
- LDH release cytotoxicity (1 µM): 10.1 ± 2.2%
- LDH release cytotoxicity (3.16228 µM): 11.5 ± 4.3%
- LDH release cytotoxicity (10 µM): 10.1 ± 0.93%
- LDH release cytotoxicity (31.6228 µM): 7.72 ± 1.5%
- LDH release cytotoxicity (100 µM): 5.064 ± 0.022%

Structure (SMILES): O=S(=O)(O)C(F)(F)C(F)(F)C(F)(F)C(F)(F)F [Potassium perfluorobutanesulfonate]
- LDH release cytotoxicity (0.0332039 µM): -0.897 ± 0.78%
- LDH release cytotoxicity (0.105 µM): -1.25 ± 1.1%
- LDH release cytotoxicity (0.332039 µM): -2.33 ± 0.91%
- LDH release cytotoxicity (1.05 µM): -2.02 ± 0.33%
- LDH release cytotoxicity (3.32039 µM): -1.34 ± 0.56%
- LDH release cytotoxicity (10.5 µM): -1.05 ± 0.085%
- LDH release cytotoxicity (33.2039 µM): -1.53 ± 0.46%
- LDH release cytotoxicity (105 µM): 0.458 ± 0.54%

Structure (SMILES): CC(=O)NC1(c2cccc(F)c2)CCN(CCC2(c3ccc(Cl)c(Cl)c3)CN(c3ccccc3)C(=O)CO2)CC1 (centres undefined)
- LDH release cytotoxicity (0.03162 µM): -0.672 ± 1.2%
- LDH release cytotoxicity (0.1 µM): -0.672 ± 0.82%
- LDH release cytotoxicity (0.3162278 µM): -0.643 ± 0.17%
- LDH release cytotoxicity (1 µM): -0.552 ± 0.44%
- LDH release cytotoxicity (3.16228 µM): -0.767 ± 0.35%
- LDH release cytotoxicity (10 µM): -0.38 ± 0.15%
- LDH release cytotoxicity (31.6228 µM): 0.499 ± 0.37%
- LDH release cytotoxicity (100 µM): 3.41 ± 1.2%

Structure (SMILES): NC(N)=O [Urea]
- LDH release cytotoxicity (0.03162 µM): -1.69 ± 0.59%
- LDH release cytotoxicity (0.1 µM): -0.896 ± 0.18%
- LDH release cytotoxicity (0.3162278 µM): -1.17 ± 0.012%
- LDH release cytotoxicity (1 µM): -1.62 ± 0.5%
- LDH release cytotoxicity (3.16228 µM): -0.792 ± 0.012%
- LDH release cytotoxicity (10 µM): -0.693 ± 0.13%
- LDH release cytotoxicity (31.6228 µM): -1.24 ± 0.23%
- LDH release cytotoxicity (100 µM): 1.24 ± 0.49%

Structure (SMILES): CCC(C)(C)C(=O)OC1=C(c2ccc(Cl)cc2Cl)C(=O)OC12CCCCC2 [Spirodiclofen]
- LDH release cytotoxicity (0.03162 µM): -0.904 ± 0.1%
- LDH release cytotoxicity (0.1 µM): -1.21 ± 1.1%
- LDH release cytotoxicity (0.3162278 µM): -0.287 ± 0.5%
- LDH release cytotoxicity (1 µM): -1.32 ± 0.39%
- LDH release cytotoxicity (3.16228 µM): -1.74 ± 0.89%
- LDH release cytotoxicity (10 µM): 0.0779 ± 0.41%
- LDH release cytotoxicity (31.6228 µM): -1.05 ± 0.14%
- LDH release cytotoxicity (100 µM): 0.552 ± 0.59%

Structure (SMILES): CCCCC(O)(Cn1cncn1)c1ccc(Cl)cc1Cl (centres undefined) [Hexaconazole]
- LDH release cytotoxicity (0.03162 µM): -0.998 ± 0.92%
- LDH release cytotoxicity (0.1 µM): -0.668 ± 1.4%
- LDH release cytotoxicity (0.3162278 µM): 0.00223 ± 0.062%
- LDH release cytotoxicity (1 µM): -0.913 ± 0.57%
- LDH release cytotoxicity (3.16228 µM): -0.0659 ± 0.044%
- LDH release cytotoxicity (10 µM): 0.28 ± 0.96%
- LDH release cytotoxicity (31.6228 µM): -0.401 ± 0.24%
- LDH release cytotoxicity (100 µM): 10.1 ± 1.3%

Structure (SMILES): CNC(=O)C1OC(n2cnc3c(NCc4cc(Cl)ccc4OCc4cc(C)no4)ncnc32)C(O)C1N (centres undefined)
- LDH release cytotoxicity (0.03162 µM): -1.47 ± 0.23%
- LDH release cytotoxicity (0.1 µM): -1.47 ± 1.1%
- LDH release cytotoxicity (0.3162278 µM): -1.92 ± 0.35%
- LDH release cytotoxicity (1 µM): -1.97 ± 0.043%
- LDH release cytotoxicity (3.16228 µM): -1.57 ± 0.1%
- LDH release cytotoxicity (10 µM): -1.54 ± 0.46%
- LDH release cytotoxicity (31.6228 µM): -0.977 ± 0.33%
- LDH release cytotoxicity (100 µM): 0.0796 ± 0.85%

Structure (SMILES): Nc1nc(Cl)nc2c1ncn2C1CC(O)C(CO)O1 (centres undefined) [Cladribine]
- LDH release cytotoxicity (0.03162 µM): 1.26 ± 0.91%
- LDH release cytotoxicity (0.1 µM): 0.387 ± 1.1%
- LDH release cytotoxicity (0.3162278 µM): 1.42 ± 0.94%
- LDH release cytotoxicity (1 µM): 1.39 ± 0.35%
- LDH release cytotoxicity (3.16228 µM): 3.14 ± 0.5%
- LDH release cytotoxicity (10 µM): 7.59 ± 0.6%
- LDH release cytotoxicity (31.6228 µM): 10.9 ± 2%
- LDH release cytotoxicity (100 µM): 13.4 ± 1%

Structure (SMILES): O=P(OCCCl)(OCCCl)OCCCl [Tris(2-chloroethyl) phosphate]
- LDH release cytotoxicity (0.03162 µM): 0.00945 ± 0.48%
- LDH release cytotoxicity (0.1 µM): -0.629 ± 0.15%
- LDH release cytotoxicity (0.3162278 µM): -0.615 ± 0.025%
- LDH release cytotoxicity (1 µM): -1.15 ± 0.9%
- LDH release cytotoxicity (3.16228 µM): -0.623 ± 0.18%
- LDH release cytotoxicity (10 µM): -0.4 ± 0.39%
- LDH release cytotoxicity (31.6228 µM): 0.187 ± 0.64%
- LDH release cytotoxicity (100 µM): 0.367 ± 0.4%

Structure (SMILES): CCc1ccc(O)c(C(C)(C)C)c1 [2-tert-Butyl-4-ethylphenol]
- LDH release cytotoxicity (0.03162 µM): -1.09 ± 0.39%
- LDH release cytotoxicity (0.1 µM): -1.23 ± 0.81%
- LDH release cytotoxicity (0.3162278 µM): -1.36 ± 0.88%
- LDH release cytotoxicity (1 µM): -2.09 ± 0.78%
- LDH release cytotoxicity (3.16228 µM): -0.936 ± 0.3%
- LDH release cytotoxicity (10 µM): 0.529 ± 0.44%
- LDH release cytotoxicity (31.6228 µM): -0.602 ± 0.34%
- LDH release cytotoxicity (100 µM): 0.703 ± 0.44%

— the supplement of paper PMC7840683
